Assay results from publication PMC7732531 (Frontiers in Pharmacology, 2020).
Read-outs that look alike come from different tables or passages of the source.

What was measured:
forced swim rats = test system: forced swim rats; set-up: method as in Zhang et al., 2017; conditions: ref Zhang et al., 2017, cited from earlier work
[1] = Brain distribution under steady state (Kp,uu); type: in vivo, rat
[2] = Blood/plasma partitional ratio, human blood; type: in vitro ADME; conditions: fresh pooled whole blood with heparin, human whole blood, 37°C, read-out: blood/plasma partitioning (R b/P)
Method: The blood/plasma partitional ratio (R b/p) in rat and human blood was measured in vitro using fresh pooled blood including heparin. Whole blood was preincubated at 37°C in a water bath, and spiked with YL-IPA08 at 1 µM. The blood samples were incubated at 37°C for 1 h. After incubation, aliquots of 25 µl spiked whole blood were removed, and the remaining blood was centrifuged at 2,000 × g for 10 min, after which 25 µl aliquots of plasma were removed. Obtained blood and plasma samples were spiked with same volume of blank plasma or blood, respectively, and then immediately precipitated by adding 4× volumes of acetonitrile containing IS to get the same matrix. The concentrations of YL-IPA08 in blood and plasma were determined by LC-MS/MS.

[3] = rat, microsomes, 0 h, 1 μM, pH 7.4
[4] = Protein binding by rapid equilibrium dialysis, rat brain homogenate; type: in vitro ADME
Method: The fraction of unbound YL-IPA08 in plasma and liver microsomes of rat and human, and brain homogenates of rat were determined utilizing Rapid Equilibrium Dialysis method ([Waters et al., 2008]). Rat brain homogenate was harvested in 4-fold volume (w/v) of PBS (pH 7.4). YL-IPA08 were spiked into fresh plasma, rat brain homogenate, liver microsomes (0.2 mg/ml protein) at concentration of 1 µM, and then dialyzed against biomatrices on a shaker at 37°C for 4 h. To avoid the high non-specific binding of YL-IPA08, 0.01% Tween 80 was added in the incubation mixture. At the end of the incubation, protein was precipitated with acetonitrile (containing IS) and analyzed by LC-MS/MS. Phenacetin, quinidine, and warfarin were selected as positive control for the protein binding test.
The unbound fraction of YL-IPA08 in plasma or liver microsomes (ƒu,x) was calculated as shown in Eq. 2, and unbound fraction in the tissue homogenate (ƒu,b) was calculated according to Eq. 3. fu,x = Concbuffer chamber/Concplasma/liver microsomes chamber (2) fu,b = Concbuffer chamber/Concbrain homogenate chamber (3) The measured unbound fractions would be higher when a tissue is homogenized and diluted in buffer, the unbound fractions in an undiluted tissues (ƒu,brain) were calculated using Eq. 4 ([Kalvass and Maurer, 2002]). Undiluted fu,brain=1/D/((1/fu,brain homogenate)−1)+1/D (4) Where D represents the fold of dilution factor in brain homogenates.

in vivo = conditions: male, rat, po, 1 mg/kg
Method: The surgical procedure for portal vein catheter insertion was performed according to reference ([Matsuda et al., 2012]). Male SD rats (250–280 g) were purchased from Beijing Vital River Laboratory Animal Technology Co., Ltd. (Beijing, China). Rats were anesthetized with 2% pentobarbital sodium (0.2–0.3 mg/100 g) intraperitoneally dosed. Cannulation into the jugular vein was performed by the method of Murakami reported ([Murakami et al., 2003]) with minor modification. Briefly, an incision of ∼0.5 cm near right clavicle was made and the jugular vein was exposed. Next, this vein was cannulated with ∼12.5 cm of silicone gel tubing (0.6 mm I.D. × 0.9 mm O.D., Skillsmodel Inc., Beijing, China). The other side of the tubing was passed through the back skin. 2.5 cm midline incision was made in the abdominal cavity close to ensiform process and the portal vein was detached. To prevent bleeding, the portal vein was ligated temporarily as the catheter was inserted. The silicone tubing (22 cm, 0.6 mm I.D. × 0.9 mm O.D., Skillsmodel Inc., Beijing, China) was inserted immediately and fixed by a purse-string suture on the portal vein. The time to reperfusion was about 1 min after intercepted blood flow. In addition, a catheter with trumpet-shaped opening was used to prevent the catheter from slipping out of the vessel and minimize the effect on blood flow. Another end of the catheter was passed subcutaneously to the skin close to the scapula.
Blood samples were collected at 0, 0.083, 0.25, 0.5, 1, 2, 4, 6, 8 and 12 h. Blood (approximately 100 µl) was collected from the jugular and portal veins into tubes containing heparin on ice and centrifuged within 1 h of collection. Plasma was harvested and stored at −20°C for bioanalysis.
FaFg was calculated using mass balance method and rat portal blood flow (Qpv) of 32 ml/min/kg, where Rb/p is used to convert plasma concentrations to blood concentrations.

[5] = rat, microsomes, 0 h, 1 μM, pH 7.4; remark: listed apart in the source
[6] = Pilot enzyme kinetic study in liver microsomes; type: in vitro ADME
Text: Since identification of F a, F g and F h is of importance to mechanistic understanding the systemic exposure, the related efficacy, and the potent drug-drug interactions, a number of in vivo and in vitro models have been developed to elucidate F a, F g and F h. As for in vitro methods, liver microsomes, S9 or hepatocytes are all well accepted for the generation of hepatic clearance and F h via in vitro-in vivo extrapolation (IVIVE) ([Houston and Carlile, 1998]). Furthermore, functionally mature enterocytes mainly express CYPs and UGTs. Among UGT isoforms, UGT1A8 and UGT1A10 show gut-specific expression patterns ([Kaminsky and Zhang, 2003]; [Court et al., 2012]). However, the achievement of intestinal clearance and (F g) from intestinal microsomes is limited by a lack of consensus on the appropriate scaling factors and a low availability of high-quality tissue. In the present study, in vitro metabolic stability of YL-IPA08 was performed in liver microsomes and intestinal microsomes of rat and human in the presence of NADPH and UDPGA to identify the metabolizing enzyme, organ, and species difference. […] UGT is not involved in the depletion of YL-IPA08. Although the CYP-mediated elimination in HIM and RIM were also observed, with great difference of enzyme expression level between liver and gut, the contribution of intestinal metabolism to the oral bioavailability is hard to define. […]

With `CCN(Cc1ccccn1)C(=O)Cc1c(-c2ccc(Cl)c(Cl)c2)nc2cc(C)ccn12` [YL-IPA08] as the compound, how does the antidepressant-like effect (forced swim rats; forced swim rats, 1, 3, and 10 mg/kg) read?
The antidepressant-like effect was “marked acute antidepressant-like effects”.

What about the “antidepressant-like and anxiolytic-like effects” value (forced swim rats; series of rat behavior models, 1–10 mg/kg oral dosing) of the same compound?
The value was “significant antidepressant-like and anxiolytic-like effects”.

And the “unbound concentration in rat brain” value ([1]; estimated based on K p,uu)?
The value was 0.0065 ng/mL.

And the “unbound concentration in brain” value ([1]; rats, after 1 mg/kg oral dosing, estimated from plasma concentrations and K p,uu)?
Its value is 6.5 pg/g.

And the blood plasma ratio at 1 h, 1 µM [2]?
The blood plasma ratio at 1 h, 1 µM was 1.58 ± 0.06.

What about the percent of remaining [3] of the same compound?
The percent of remaining was 100.00%.

And the “Protein biding (%)” value ([4]; Rat brain homogenate, 1 µM, dialysis 4 h)?
Its value is 99.51 ± 0.01%.

And the “Concentration, Cbuffer chamber” value ([4]; Rat brain homogentate, 4 h)?
Its value is 18.85 ± 0.21 nM.

What about the “Concentration, Cplasma/microsome chamber” value ([4]; rat, 4 h, 1 µM, pH 7.4) of the same compound?
The value was 788.33 ± 8.39 nM.

What about the fraction unbound at 4 h, 1 µM ([4]; rat, brain homogenate, pH 7.4) of the same compound?
The fraction unbound at 4 h, 1 µM was 0.0049.

What about the concentration at 0.5 h (in vivo; SD, Plasma concentration) of the same compound?
The concentration at 0.5 h was 77 ± 22.7 ng/mL.

What about the concentration at 1 h (in vivo; SD, Plasma concentration) of the same compound?
The concentration at 1 h was 75.5 ± 26.7 ng/mL.

And the concentration at 2 h (in vivo; SD, Plasma concentration)?
The concentration at 2 h was 78.3 ± 38.3 ng/mL.

And the concentration at 4 h (in vivo; SD, Plasma concentration)?
Its concentration at 4 h is 34.1 ± 13.6 ng/mL.

What about the concentration at 6 h (in vivo; SD, Plasma concentration) of the same compound?
Its concentration at 6 h is 11.7 ± 3.9 ng/mL.

What about the concentration at 8 h (in vivo; SD, Plasma concentration) of the same compound?
The concentration at 8 h was 5.23 ± 1.47 ng/mL.

What about the concentration at 12 h (in vivo; SD, Plasma concentration) of the same compound?
Its concentration at 12 h is 1.96 ± 0.66 ng/mL.

And the AUC (in vivo; Sprague-Dawley (SD), AUC)?
The AUC was 441 ± 93 ng·h/mL.

And the percent of remaining [5]?
Its percent of remaining is 100.00%.

What about the K m [6] of the same compound?
The K m was 1 to 3 µM.
